Measurements as given in US7402611B1, “Use of amino acids for making medicines for treating to insulin-resistance” (Innodia Inc., priority 1999, dated 2008).
Entries after “also recorded” stand apart in the source; their conditions may differ.

How the values were obtained:
[1] = tested on: insulin receptor (IR); assay: Phosphorylation of the insulin receptor in the liver of normal rats; assay type: in vivo; settings: normal rat liver, single injection 200 μg/kg I.P.; comparable to insulin
[2] = tested on: IRS-1; assay: Phosphorylation of IRS-1 in the liver of normal rats; assay type: in vivo; settings: normal rat liver, single injection 200 μg/kg I.P.; comparable to insulin
[3] = tested on: PI 3-kinase; assay: PI 3-kinase activity of the liver (anti-IRS-1 immunoprecipitates), normal rats; assay type: in vivo, rat; settings: normal Wistar rats, i.p., insulin 100 U/kg, 4-OH-Ile 18 mg/kg, 15 min after injection; p<0.05
Method: (§1) The PI 3-kinase activity was measured on immunoprecipitates carried out with the anti-IRS-1 antibody. This made it possible to determine the enzymatic activity associated with the action of insulin and to compare it to the action induced by 4-OH-Ile. Normal male Wistar rats (IFFA CREDO strain, France) received, via intraperitoneal injection, either ordinary insulin on its own (100 U/kg) or 4-OH-Ile on its own (18 mg/kg), or insulin combined with 4-OH-Ile in the same doses. The control rats received sodium chloride at 9‰ via intraperitoneal route. Fifteen minutes after the injection, the animals were sacrificed and the peripheral tissues (liver, muscle) were immediately removed and frozen in liquid nitrogen. […] After solubilisation, the supernatants are immunoprecipitated with anti-IRS-1 and the PI 3-kinase activity is measured in the immunoprecipitate. […] The product of the reaction is subjected to thin layer chromatography (TLC plate) and the levels of phosphorylation of PI are measured by a STORM phospho-imager (Molecular Dynamics). The activity is expressed in arbitrary units given by the apparatus (conversion of the radioactivity to luminescence by means of a laser beam).

[4] = tested on: insulin receptor; assay: Bonding of insulin on its receptor in hepatic LMH cell lines; assay type: binding; settings: LMH cells (chicken hepatocarcinoma), competition with insulin
Text: FIG. 4, the bonding of insulin on its receptor in hepatic LMH cell lines, In FIG. 4 the comparative results concerning the bonding of isoleucine and 4-OH-Ile are given. The LMH cells used in these trials are from chicken hepatocarcinoma (Kawaguchi T. et al., Cancer Res., 47, 4460, 1987).

[5] = tested on: PI 3-kinase; assay: PI 3-kinase activity of muscle (anti-IRS-1 immunoprecipitates), normal rats; assay type: in vivo, rat; settings: normal Wistar rats, i.p., insulin 100 U/kg, 4-OH-Ile 18 mg/kg, 15 min after injection
Method: as §1

[6] = Basal insulinemia and glycemia during chronic administration in type 2 diabetic rats; assay type: in vivo, rat
Method: The beneficial effect of 4-hydroxyisoleucine against relative hyperinsulinemia has been researched in vivo during chronic administration (for one month) of plant amino acid (25 mg/kg/day, by intraperitoneal route) on rats made non insulin dependant diabetic (type 2 diabetes) by joint injections of nicotinamide and streptozotocin (Masiello et al., Diabetes, 47, 224, 1998). Regular blood samples are taken from the caudal vein of the rats made it possible to evaluate the level of plasmatic insulin using a radio-immunological method (Herbert et al., J. Clin. Endocr., 25. 1375, 1965), 15 hours after injection of the product which took place at 5.30 pm. In these same samples, the plasmatic glucose level was measured using an enzymatic method (Trinder P., J. Clin. Pathol. 22, 158, 1969).

[7] = tested on: PI 3-kinase; assay: PI 3-kinase activity of the liver in type 2 diabetic rats; assay type: in vivo, rat; settings: liver of rats with type 2 diabetes; p<0.05 for 4-OH-Ile
Method: (§2) For the determination of the PI 3-kinase activity, the tissues are ground in a buffer containing protease and phosphatase inhibitors as well as a solubilising agent (Triton), as described by Taouis et al., J. Biol. Chem., 269, 14912, 1994. After solubilisation, the supernatants are immunoprecipitated with anti-IRS-1 and the PI 3-kinase activity is measured in the immunoprecipitate. In fact, the reaction is initiated by the addition of an artificial substrate of the enzyme: phosphatidylinositol (PI) and (^33P) gamma ATP. The product of the reaction is subjected to thin layer chromatography (TLC plate) and the levels of phosphorylation of PI are measured by a STORM phospho-imager (Molecular Dynamics). The activity is expressed in arbitrary units given by the apparatus (conversion of the radioactivity to luminescence by means of a laser beam). Comparison of the Effects of Insulin and Those of 4-OH-Ile on the PI 3-Kinase Activity of the Muscle and the Liver Removed from Rats with Type 2 Diabetes (Masiello et al., Diabetes 47, 224, 1998)

[8] = tested on: PI 3-kinase; assay: PI 3-kinase activity of the muscle in type 2 diabetic rats; assay type: in vivo, rat; settings: muscle of rats with type 2 diabetes; p<0.01 for 4-OH-Ile
Method: as §2

[9] = tested on: PI 3-kinase; assay: Basal PI 3-kinase activity of the liver of obese Zucker rats (fa/fa) after chronic administration; assay type: in vivo, rat; settings: 50 mg/kg i.p. for 4 weeks, sacrificed 17 hours after last administration
Method: as §2, with “During chronic administration for 4 weeks of 4-OH-Ile (50 mg/kg by intraperitoneal route) in obese Zucker rats (fa/fa), the PI 3-kinase activity” for “Comparison”, “liver was measured at” for “Effects of Insulin and Those of 4-OH-Ile on”, “end” for “PI 3-Kinase Activity”, “treatment.” for “Muscle and the Liver Removed from Rats with Type 2 Diabetes (Masiello et al., Diabetes 47, 224, 1998)”

[10] = tested on: PI 3-kinase associated with the insulin receptor; assay: PI 3-kinase activity associated with the insulin receptor in the liver of a normal rat; assay type: in vivo; settings: 18 mg/kg I.P., p<0.05
Method: as §2, with “beam). The PI 3-kinase activities” for “beam). Comparison”, “the PDGF receptor and” for “the Effects”, “of the insulin receptor in the presence or the absence” for “of Insulin and Those”, “4-OH-Ile (18 mg/kg I.P.) were compared following” for “4-OH-Ile on”, “the protocol already described.” for “the PI 3-Kinase Activity of the Muscle and the Liver Removed from Rats with Type 2 Diabetes (Masiello et al., Diabetes 47, 224, 1998)”

[11] = tested on: phosphatase activity associated with IRS-1; assay: Phosphatase activity associated with IRS-1 in the liver of a normal rat; assay type: biochemical; settings: 200 μmol/1, p<0.05
Method: The phosphatase activity was measured on the immunoprecipitates carried out with the anti-IRS-1 antibody and insulin anti-receptor. The solubilisation protocol is the same as that for PI 3-kinase following the methodology described by Taouis et al. (J. Biol. Chem., 269, 14912, 1994). After immunoprecipitation, the phosphatase activity was measured according to the method described by Chen. et al. (J. Biol. Chem., 272, 8026, 1997). With the aim of better locating the action site of the 4-OH-Ile, its impact on phosphatase activity was studied. The phosphatase activity associated with IRS-1 was measured.

[12] = Water solubility; assay type: physicochemical

Compound | activation (phosphorylation) of the insulin receptor (IR) [1] | activation (phosphorylation) of IRS-1 [2] | hepatic PI 3-kinase activity [3] | bonding to the insulin membrane receptor of the hepatocyte [4] | PI 3-kinase activity of muscle [5] | insulinemia (plasmatic insulin) ([6]; type 2 diabetic rats (nicotinamide/streptozotocin), 25 mg/kg/day i.p. for one month, 15 hours after injection) | glycemia ([6]; type 2 diabetic rats, 25 mg/kg/day i.p., at the end of the treatment) | plasmatic insulin after cessation of the treatment ([6]; type 2 diabetic rats, after cessation of 25 mg/kg/day i.p. treatment) | hepatic PI 3-kinase activity [7] | muscular PI 3-kinase activity [8] | basal activity of PI 3-kinase of the liver [9] | PI 3-kinase activity associated with the insulin receptor [10] | phosphatase activity associated with IRS-1 [11] | solubility in water [12]
CC(O)C(C)C(N)C(=O)O (stereo not drawn) [4-OH-Ile, 4-hydroxyisoleucine] | induces the activation | induces the activation | significantly stimulate | has no bond with this receptor; also recorded: does not recognise the insulin receptor | has a comparable effect | significantly lowering | slight reduction | again rises to regain values close to those observed before the treatment | the same effect as insulin with the same intensity; also recorded: significantly stimulates | the same effect as insulin with the same intensity; also recorded: significantly stimulates | is increased | the only one increased | significantly inhibits | hydrosoluble
insulin [reference compound] |  |  | significantly stimulate |  | clearly stimulates |  |  |  | activates | activates |  |  |  | 
